Laboratory results from patent US5994629A, “Positive selection” (priority 1991, dated 1999).
Counter-ions that a name gives are not always drawn. Like-named read-outs stand apart in the source and are kept apart here.

Columns and labels:
[1] = test system: potato stem segments; assay: Carbohydrate sources, potato stem segments, 9 weeks; type: cell-based; conditions: 5 g/l, 9 weeks; for activity at 5000 µg/mL: Solanum tuberosum
Excerpt: Similar results are observed with potato stem segments after 9 weeks of culturing.

[2] = test system: leaf discs of tobacco with (GUS+) introduced β-glucuronidase genes; type: cell-based, Nicotiana tabacum 'Wisconsin 38'; conditions: test compounds at several concentrations up to 250 μM in MSO
[3] = target: β-glucuronidase from E. coli (Escherichia coli, UniProt P05804); assay: Hydrolysis by β-glucuronidase (GUS), HPLC/TLC; type: biochemical
Description: […] […] This confirms the identity of the product as a conjugate of BA and β-D-glucuronic acid.
[…] The presence of hydrolysis products is then determined using HPLC and TLC.

[4] = test system: leaf discs of tobacco without (GUS-) introduced β-glucuronidase genes; type: cell-based, Nicotiana tabacum 'Wisconsin 38'; conditions: test compounds at several concentrations up to 250 μM in MSO
[5] = test system: plant material transgenic for the mannose 6-phosphate isomerase gene; assay: Selection on mannose together with phloridzin; type: cell-based; conditions: 0.5 g/l phloridzin
Excerpt: The transformed plant material is transgenic for the mannose 6-phosphate isomerase gene. After 21 days the selected shoots are harvested. […] Example 29 is repeated except that MOG is substituted by phloridzin. […] This is an example of how cross feeding and the production of escapers can be minimized by the addition of a carbohydrate transport inhibitor.

[6] = test system: explants transgenic for the mannose 6-phosphate isomerase gene; assay: Shoot regeneration on mannose, sucrose and methyl-3-O-glucose, Man-6-P-isomerase; type: cell-based; conditions: Man-6-P-isomerase
[7] = test system: Wild type explants; assay: Shoot regeneration on mannose, sucrose and methyl-3-O-glucose, wild type; type: cell-based; conditions: Wild type
[8] = test system: plant material transgenic for the mannose 6-phosphate isomerase gene; assay: Effect of methyl-3-O-glucose on selection of transgenic shoots on mannose; type: cell-based; conditions: mannose 15 g/l, no sucrose
Excerpt: The transformed plant material is transgenic for the mannose 6-phosphate isomerase gene. After 21 days the selected shoots are harvested.

[9] = test system: explants; assay: Inhibition of the toxicity of mannose by methyl-3-O-glucose; type: cell-based
Excerpt: Example 25 is repeated except that the selection/regeneration substrate is supplemented with methyl 3-0-glucose (MOG) at the concentrations indicated in Table 25. The percentage of live explants is registered after 8 weeks.

[10] = mannose 5.0 g/l, first '+ Sucrose' column
[11] = mannose 5.0 g/l, second '+ Sucrose' column
[12] = mannose 7.5 g/l, first '+ Sucrose' column
[13] = mannose 7.5 g/l, second '+ Sucrose' column
[14] = mannose 10.0 g/l, first '+ Sucrose' column
[15] = mannose 10.0 g/l, second '+ Sucrose' column
[16] = mannose 12.5 g/l, first '+ Sucrose' column
[17] = mannose 15.0 g/l, first '+ Sucrose' column
[18] = MOG 2.5, mannose 0 g/l, sucrose 10 g/l
[19] = MOG 2.5, mannose 5 g/l, sucrose 0 g/l
[20] = MOG 2.5, mannose 5 g/l, sucrose 10 g/l
[21] = MOG 2.5, mannose 10 g/l, sucrose 0 g/l
[22] = MOG 2.5, mannose 10 g/l, sucrose 10 g/l
[23] = MOG 2.5, mannose 20 g/l, sucrose 0 g/l
[24] = MOG 2.5, mannose 20 g/l, sucrose 10 g/l
[25] = MOG 5.0, mannose 0 g/l, sucrose 0 g/l
[26] = MOG 5.0, mannose 0 g/l, sucrose 10 g/l
[27] = MOG 5.0, mannose 5 g/l, sucrose 0 g/l
[28] = MOG 5.0, mannose 5 g/l, sucrose 10 g/l
[29] = MOG 5.0, mannose 10 g/l, sucrose 0 g/l
[30] = MOG 5.0, mannose 10 g/l, sucrose 10 g/l
[31] = MOG 5.0, mannose 20 g/l, sucrose 0 g/l
[32] = MOG 5.0, mannose 20 g/l, sucrose 10 g/l

β-glucuronidase from E. coli, sequence (P05804 whole entry, looked up): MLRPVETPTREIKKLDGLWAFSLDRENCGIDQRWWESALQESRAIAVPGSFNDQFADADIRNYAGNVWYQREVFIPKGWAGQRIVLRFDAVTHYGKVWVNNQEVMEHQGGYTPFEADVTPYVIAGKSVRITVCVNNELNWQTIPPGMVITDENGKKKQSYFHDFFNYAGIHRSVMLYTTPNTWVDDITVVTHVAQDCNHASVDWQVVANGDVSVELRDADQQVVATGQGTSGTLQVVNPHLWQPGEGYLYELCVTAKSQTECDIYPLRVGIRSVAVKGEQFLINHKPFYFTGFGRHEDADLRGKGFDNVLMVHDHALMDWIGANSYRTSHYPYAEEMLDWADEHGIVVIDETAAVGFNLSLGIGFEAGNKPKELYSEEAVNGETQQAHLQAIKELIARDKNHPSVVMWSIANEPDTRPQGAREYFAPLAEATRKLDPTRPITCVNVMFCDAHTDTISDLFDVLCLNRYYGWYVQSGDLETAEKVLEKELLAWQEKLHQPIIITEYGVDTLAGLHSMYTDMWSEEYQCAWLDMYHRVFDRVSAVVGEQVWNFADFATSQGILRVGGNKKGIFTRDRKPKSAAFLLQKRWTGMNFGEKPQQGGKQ

O=C(CO)[C@@H](O)[C@H](O)CO [D-xylulose]
# of Shoots per explant [1]: 2.2 | activity at 5000 µg/mL ([1]; read-out: Size % of control): 74% | activity at 5000 µg/mL ([1]; read-out: explants alive % of control): 58%

C/C(=C\CNc1ncnc2[nH]cnc12)CO[C@@H]1O[C@H](C(=O)O)[C@@H](O)[C@H](O)[C@H]1O [ZOGN sodium salt, O-β-D-glucopyranuronosylzeatin, sodium salt]
Shoot formation, GUS+ [2]: + ("+" means shoot formation at concentrations below 250 μM) | Hydrolysis by β-glucuronidase (GUS), result in words ([3]; 50 mM sodium phosphate buffer pH 7.0, 37° C., HPLC/TLC): virtually complete conversion to trans zeatin | Shoot formation, GUS- [4]: + ("+" means shoot formation at concentrations below 250 μM)

CC(C)=CCNc1ncnc2[nH]c(S[C@@H]3O[C@H](C(=O)O)[C@@H](O)[C@H](O)[C@H]3O)nc12 [IP8SGN sodium salt, 6-(3-methyl-but-2-enylamino)purine-8-yl-1-thio-β-D-glucopyranuronic acid, sodium salt]
Shoot formation, GUS+ [2]: + ("+" means shoot formation at concentrations below 250 μM) | conversion to the aglycone by GUS ([3]; 1 mg/ml, 2500 units GUS, 24 hours, 37° C., TLC): > 95% | Shoot formation, GUS- [4]: + ("+" means shoot formation at concentrations below 250 μM)

O=C(CCc1ccc(O)cc1)c1c(O)cc(O)cc1O[C@@H]1O[C@H](CO)[C@@H](O)[C@H](O)[C@H]1O [Phloridzin, phloridzin]
GUS+ Shoots/Expl. [5, 10]: 1.2 | GUS+ Shoots/Sel. Shoots [5, 10]: 94.0% | GUS+ Shoots/Expl. [5, 11]: 0.08 | GUS+ Shoots/Sel. Shoots [5, 11]: 100.0% | GUS+ Shoots/Expl. [5, 12]: 0.5 | GUS+ Shoots/Sel. Shoots [5, 12]: 88.0% | GUS+ Shoots/Expl. [5, 13]: 0.5 | GUS+ Shoots/Sel. Shoots [5, 13]: 78.5% | GUS+ Shoots/Expl. [5, 14]: 0.5 | GUS+ Shoots/Sel. Shoots [5, 14]: 100.0% | GUS+ Shoots/Expl. [5, 15]: 0.5 | GUS+ Shoots/Sel. Shoots [5, 15]: 95% | GUS+ Shoots/Expl. [5, 16]: 0.03 | GUS+ Shoots/Sel. Shoots [5, 16]: 100% | GUS+ Shoots/Expl. ([5]; mannose 12.5 g/l, second '+ Sucrose' column): 0.0 | GUS+ Shoots/Expl. [5, 17]: 0.03 | GUS+ Shoots/Sel. Shoots [5, 17]: 100% | GUS+ Shoots/Expl. ([5]; mannose 15.0 g/l, second '+ Sucrose' column): 0.0

C/C(=C\CNc1ncnc2[nH]cnc12)CO [Zeatin]
Shoot formation, GUS+ [2]: + ("+" means shoot formation at concentrations below 250 μM) | Shoot formation, GUS- [4]: + ("+" means shoot formation at concentrations below 250 μM)

O=C(O)[C@H]1OC(O)[C@H](O)[C@@H](O)[C@@H]1O (some centres unmarked) [Glucuronic acid]
Shoot formation, GUS+ [2]: - ("-" means no shoot formation at concentrations below 250 μM) | Shoot formation, GUS- [4]: - ("-" means no shoot formation at concentrations below 250 μM)

CO[C@H]1[C@H](O)[C@@H](CO)OC(O)[C@@H]1O (some centres unmarked) [MOG, methyl 3-0-glucose]
regenerated shoots as a percentage of shoots on substrates without mannose and methyl-3-0-glucose ([6]; MOG 2.5, mannose 0 g/l, sucrose 0 g/l): 0 | regenerated shoots as a percentage of shoots on substrates without mannose and methyl-3-0-glucose [6, 18]: 0 | regenerated shoots as a percentage of shoots on substrates without mannose and methyl-3-0-glucose [6, 19]: 7 | regenerated shoots as a percentage of shoots on substrates without mannose and methyl-3-0-glucose [6, 20]: 64 | regenerated shoots as a percentage of shoots on substrates without mannose and methyl-3-0-glucose [6, 21]: 64 | regenerated shoots as a percentage of shoots on substrates without mannose and methyl-3-0-glucose [6, 22]: 86 | regenerated shoots as a percentage of shoots on substrates without mannose and methyl-3-0-glucose [6, 23]: 107 | regenerated shoots as a percentage of shoots on substrates without mannose and methyl-3-0-glucose [6, 24]: 200 | regenerated shoots as a percentage of shoots on substrates without mannose and methyl-3-0-glucose [6, 25]: 0 | regenerated shoots as a percentage of shoots on substrates without mannose and methyl-3-0-glucose [6, 26]: 0 | regenerated shoots as a percentage of shoots on substrates without mannose and methyl-3-0-glucose [6, 27]: 0 | regenerated shoots as a percentage of shoots on substrates without mannose and methyl-3-0-glucose [6, 28]: 64 | regenerated shoots as a percentage of shoots on substrates without mannose and methyl-3-0-glucose [6, 29]: 28 | regenerated shoots as a percentage of shoots on substrates without mannose and methyl-3-0-glucose [6, 30]: 36 | regenerated shoots as a percentage of shoots on substrates without mannose and methyl-3-0-glucose [6, 31]: 128 | regenerated shoots as a percentage of shoots on substrates without mannose and methyl-3-0-glucose [6, 32]: 86 | regenerated shoots as a percentage of shoots on substrates without mannose and methyl-3-0-glucose ([7]; MOG 2.5, mannose 0 g/l, sucrose 0 g/l, 11 weeks): 0 | regenerated shoots as a percentage of shoots on substrates without mannose and methyl-3-0-glucose [7, 18]: 53 | regenerated shoots as a percentage of shoots on substrates without mannose and methyl-3-0-glucose [7, 19]: 0 | regenerated shoots as a percentage of shoots on substrates without mannose and methyl-3-0-glucose [7, 20]: 6 | regenerated shoots as a percentage of shoots on substrates without mannose and methyl-3-0-glucose [7, 21]: 0 | regenerated shoots as a percentage of shoots on substrates without mannose and methyl-3-0-glucose [7, 22]: 0 | regenerated shoots as a percentage of shoots on substrates without mannose and methyl-3-0-glucose [7, 23]: 0 | regenerated shoots as a percentage of shoots on substrates without mannose and methyl-3-0-glucose [7, 24]: 0 | regenerated shoots as a percentage of shoots on substrates without mannose and methyl-3-0-glucose [7, 25]: 0 | regenerated shoots as a percentage of shoots on substrates without mannose and methyl-3-0-glucose [7, 26]: 17 | regenerated shoots as a percentage of shoots on substrates without mannose and methyl-3-0-glucose [7, 27]: 0 | regenerated shoots as a percentage of shoots on substrates without mannose and methyl-3-0-glucose [7, 28]: 41 | regenerated shoots as a percentage of shoots on substrates without mannose and methyl-3-0-glucose [7, 29]: 0 | regenerated shoots as a percentage of shoots on substrates without mannose and methyl-3-0-glucose [7, 30]: 0 | regenerated shoots as a percentage of shoots on substrates without mannose and methyl-3-0-glucose [7, 31]: 0 | regenerated shoots as a percentage of shoots on substrates without mannose and methyl-3-0-glucose [7, 32]: 0 | GUS+ shoots/explant ([8]; MOG 2.5 g/l): 0.2 | GUS+ shoots/sel. shoots (%) ([8]; MOG 2.5 g/l): 57% | GUS+ shoots/explant ([8]; MOG 5.0 g/l): 1.0 | GUS+ shoots/sel. shoots (%) ([8]; MOG 5.0 g/l): 81% | GUS+ shoots/explant ([8]; MOG 10 g/l): 0.5 | GUS+ shoots/sel. shoots (%) ([8]; MOG 10 g/l): 89% | GUS+ shoots/explant ([8]; MOG 15 g/l): 0.6 | GUS+ shoots/sel. shoots (%) ([8]; MOG 15 g/l): 53% | percentage of live explants ([9]; MOG 5 g/l, mannose 0 g/l, sucrose 0 g/l): 13 | percentage of live explants ([9]; MOG 5 g/l, mannose 0 g/l, sucrose 10 g/l): 100 | percentage of live explants ([9]; MOG 5 g/l, mannose 5 g/l, sucrose 0 g/l): 54 | percentage of live explants ([9]; MOG 5 g/l, mannose 5 g/l, sucrose 10 g/l): 100 | percentage of live explants ([9]; MOG 5 g/l, mannose 10 g/l, sucrose 0 g/l): 0 | percentage of live explants ([9]; MOG 5 g/l, mannose 10 g/l, sucrose 10 g/l): 5 | percentage of live explants ([9]; MOG 10 g/l, mannose 0 g/l, sucrose 0 g/l): 47 | percentage of live explants ([9]; MOG 10 g/l, mannose 0 g/l, sucrose 10 g/l): 100 | percentage of live explants ([9]; MOG 10 g/l, mannose 5 g/l, sucrose 0 g/l): 82 | percentage of live explants ([9]; MOG 10 g/l, mannose 5 g/l, sucrose 10 g/l): 100 | percentage of live explants ([9]; MOG 10 g/l, mannose 10 g/l, sucrose 0 g/l): 9 | percentage of live explants ([9]; MOG 10 g/l, mannose 10 g/l, sucrose 10 g/l): 41 | percentage of live explants ([9]; MOG 20 g/l, mannose 0 g/l, sucrose 0 g/l): 50 | percentage of live explants ([9]; MOG 20 g/l, mannose 0 g/l, sucrose 10 g/l): 100 | percentage of live explants ([9]; MOG 20 g/l, mannose 5 g/l, sucrose 0 g/l): 98 | percentage of live explants ([9]; MOG 20 g/l, mannose 5 g/l, sucrose 10 g/l): 100 | percentage of live explants ([9]; MOG 20 g/l, mannose 10 g/l, sucrose 0 g/l): 88 | percentage of live explants ([9]; MOG 20 g/l, mannose 10 g/l, sucrose 10 g/l): 100
